From patent publication US20160060324A1, “Methods and Compositions for Treating Bleeding Disorders” (THE SCRIPPS RESEARCH INSTITUTE, priority 2013, published 2016)

Columns and labels:
[1] = biological target: T1, murine CD22 (Mus musculus, UniProt P35329); settings: higher affinity than natural ligand; cited from earlier work
T1 sequence (P35329 22-868): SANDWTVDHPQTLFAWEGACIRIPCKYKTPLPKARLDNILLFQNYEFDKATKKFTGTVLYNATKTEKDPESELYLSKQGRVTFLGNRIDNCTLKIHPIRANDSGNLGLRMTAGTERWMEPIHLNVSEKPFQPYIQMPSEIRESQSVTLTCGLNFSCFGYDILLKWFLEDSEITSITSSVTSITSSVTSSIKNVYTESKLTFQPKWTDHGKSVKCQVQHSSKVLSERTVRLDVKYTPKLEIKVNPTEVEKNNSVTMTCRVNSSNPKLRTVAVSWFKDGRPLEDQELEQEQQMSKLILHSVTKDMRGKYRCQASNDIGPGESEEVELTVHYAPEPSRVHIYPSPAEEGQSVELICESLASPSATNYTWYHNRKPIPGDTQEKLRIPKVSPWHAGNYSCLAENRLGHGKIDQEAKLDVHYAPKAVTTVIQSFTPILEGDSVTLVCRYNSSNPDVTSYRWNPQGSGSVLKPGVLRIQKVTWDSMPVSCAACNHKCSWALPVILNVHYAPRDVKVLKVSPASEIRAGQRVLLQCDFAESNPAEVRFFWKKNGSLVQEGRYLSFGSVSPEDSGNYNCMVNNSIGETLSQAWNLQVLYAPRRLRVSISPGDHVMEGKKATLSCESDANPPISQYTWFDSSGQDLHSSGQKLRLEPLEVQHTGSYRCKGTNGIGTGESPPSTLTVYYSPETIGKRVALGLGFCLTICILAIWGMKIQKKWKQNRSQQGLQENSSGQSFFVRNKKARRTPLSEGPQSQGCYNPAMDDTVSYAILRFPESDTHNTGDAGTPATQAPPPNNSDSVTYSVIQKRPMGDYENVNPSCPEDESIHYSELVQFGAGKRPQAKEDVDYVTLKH

[2] = biological target: T2, Siglec-G (Mus musculus, UniProt Q80ZE3); settings: cited from earlier work
T2 sequence (Q80ZE3 18-688): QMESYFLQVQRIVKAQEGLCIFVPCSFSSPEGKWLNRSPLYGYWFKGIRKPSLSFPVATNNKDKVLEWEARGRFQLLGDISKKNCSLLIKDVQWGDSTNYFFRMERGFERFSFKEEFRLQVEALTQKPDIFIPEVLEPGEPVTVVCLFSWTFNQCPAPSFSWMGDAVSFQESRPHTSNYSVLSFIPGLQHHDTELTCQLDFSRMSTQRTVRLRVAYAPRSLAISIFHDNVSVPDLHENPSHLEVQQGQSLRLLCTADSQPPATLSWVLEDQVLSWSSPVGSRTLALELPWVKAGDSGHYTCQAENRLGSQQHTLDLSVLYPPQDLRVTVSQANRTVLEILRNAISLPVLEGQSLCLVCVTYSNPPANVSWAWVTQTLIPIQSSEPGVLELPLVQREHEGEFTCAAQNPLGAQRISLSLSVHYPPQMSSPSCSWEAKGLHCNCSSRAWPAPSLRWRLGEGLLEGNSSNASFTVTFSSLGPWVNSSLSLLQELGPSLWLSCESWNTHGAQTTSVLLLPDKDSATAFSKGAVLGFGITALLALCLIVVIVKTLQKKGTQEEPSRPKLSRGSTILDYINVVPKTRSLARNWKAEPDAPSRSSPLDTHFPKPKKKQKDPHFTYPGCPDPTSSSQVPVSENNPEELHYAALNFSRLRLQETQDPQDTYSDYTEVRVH

[3] = tested on: C57BL/6J mice; assay: Tolerance induction to T-dependent antigen HEL in mice (anti-HEL titers by ELISA); type: in vivo, mouse; settings: for antibody suppression with varying amounts of ligand on HEL STALs: end of 44-day experiment, two challenges with immunogenic liposomes on days 15 and 30
Description: Whole blood (50 μL) was collected from mice via a retro-orbital bleed to obtain the serum after centrifugation (17,000 g, 1 min). Serum was aliquoted and stored at −20° C. Liposomes were delivered via the lateral tail vein in a volume of 200 μL. For studies involving a challenge with soluble (non-liposomal) antigen, mice were injected with 200 μg of HEL dissolved in HBSS and delivered intraperitoneally.
Maxisorp plates were coated (0/N, 4° C.) with the relevant protein (50 μL/well, 10 μg/mL) in PBS. NP4-7-BSA in PBS (Biosearch Technologies) was used to look for anti-NP antibodies. The following day, plates were washed twice in TBS-T (0.1% Tween 20) and blocked (1 hr, RT) with TBS-T containing 1% BSA. Serum was initially diluted between 20-10,000-fold and diluted in 2-3 fold serial dilutions eight times on the ELISA plate. Plates were incubated (1 hr, 37° C.) with serum (50 μL/well), washed four times, and incubated (1 hr, 37° C.) with the appropriate HRP-conjugated secondary antibodies (1:2000, Santa Cruz Biotechnologies). Following five washes, plates were developed (RT, 15 min) in 75 μL/well of TMB substrate (Thermo Fisher) and quenched with 75 μL/well of 2N H2SO4. Absorbance was measured at 450 nm and the endpoint titer was calculated as the dilution of serum that produced an absorbance 2-fold above background.
All liposomes were composed of a 60:35:5 molar ratio of distearoyl phosphatidylcholine (DSPC; Avanti Polar Lipids), cholesterol (Sigma), and pegylated lipids. The total mol % of pegylated lipids was always kept at 5%; made up of the appropriate combination of polyethyleneglycol(PEG2000)-distearoyl phosphoethanolamine (PEG-DSPE; Avanti Polar Lipids), ^BPANeuGc-PEG2000-DSPE, ^BPCNeuAc-PEG2000-DSPE, NP-PEG2000-DSPE or Protein-PEG2000-DSPE. […] The diameter of the liposomes were measured on a zetasizer (Malvern) and were consistently in the range of 100-130±30 nm. […]

## 9-N-biphenylacetyl-NeuGcα2-6Galβ1-4GlcNAc [^BPANeuGc]
[1]
  affinity for murine CD22 relative to its natural ligand (NeuGcα2-6Galβ1-4GlcNAc): 200 fold
[2]
  cross-reactivity with Siglec-G: only a small degree of cross-reactivity
[3]; antibody suppression titration, FIG. 1E
  difference in EC50 between the two ligands (^BPANeuGc vs NeuGc) on HEL STALs: two orders of magnitude difference
[3]
  antibody suppression with varying amounts of ligand on HEL STALs: dose-dependent effect on antibody suppression

## CC(=O)NC1C(O)OC(CO)C(OC2OC(COC3(C(=O)O)CC(O)C(NC(=O)CO)C(C(O)C(O)CO)O3)C(O)C(O)C2O)C1O (centres unmarked) [NeuGc, NeuGcα2-6Galβ1-4GlcNAc]
[3]
  antibody suppression with varying amounts of ligand on HEL STALs: dose-dependent effect on antibody suppression
